Assays:
[1] = biological target: Calcium-dependent protein kinase 1 (Plasmodium falciparum) (UniProt P62344); conditions: Compound concentration 1000.0 nM
[2] = biological target: Serine/threonine-protein kinase NLK (Homo sapiens) (UniProt Q9UBE8); conditions: Compound concentration 1000.0 nM
[3] = system: Proto-oncogene tyrosine-protein kinase receptor Ret (Homo sapiens), P07949 [V804L]; conditions: Compound concentration 1000.0 nM
[4] = biological target: Cyclin-dependent kinase 18 (Homo sapiens) (UniProt Q07002); conditions: Compound concentration 1000.0 nM
[5] = biological target: Tyrosine-protein kinase Yes (Homo sapiens) (UniProt P07947); conditions: Compound concentration 1000.0 nM
[6] = system: Receptor-type tyrosine-protein kinase FLT3 (Homo sapiens), P36888 [D835V]; conditions: Compound concentration 1000.0 nM
[7] = biological target: MAP kinase-interacting serine/threonine-protein kinase 2 (Homo sapiens) (UniProt Q9HBH9); conditions: Compound concentration 1000.0 nM
[8] = biological target: Tyrosine-protein kinase Lck (Homo sapiens) (UniProt P06239); conditions: Compound concentration 1000.0 nM
[9] = biological target: Serine/threonine-protein kinase ULK2 (Homo sapiens) (UniProt Q8IYT8); conditions: Compound concentration 1000.0 nM
[10] = biological target: Phosphatidylinositol 4-phosphate 3-kinase C2 domain-containing subunit beta (Homo sapiens) (UniProt O00750); conditions: Compound concentration 1000.0 nM
[11] = biological target: Protein-tyrosine kinase 6 (Homo sapiens) (UniProt Q13882); conditions: Compound concentration 1000.0 nM
[12] = biological target: Mitogen-activated protein kinase kinase kinase kinase 2 (Homo sapiens) (UniProt Q12851); conditions: Compound concentration 1000.0 nM
[13] = biological target: Activin receptor type-1B (Homo sapiens) (UniProt P36896); conditions: Compound concentration 1000.0 nM
[14] = biological target: Activin receptor type-1 (Homo sapiens) (UniProt Q04771); conditions: Compound concentration 1000.0 nM
[15] = biological target: Serine/threonine-protein kinase 10 (Homo sapiens) (UniProt O94804); conditions: Compound concentration 1000.0 nM
[16] = biological target: Histamine H3 receptor (Homo sapiens) (UniProt Q9Y5N1); conditions: Compound concentration 10.0 uM
[17] = biological target: Serine/threonine-protein kinase Nek10 (Homo sapiens) (UniProt Q6ZWH5); conditions: Compound concentration 1000.0 nM
[18] = biological target: Casein kinase I isoform gamma-2 (Homo sapiens) (UniProt P78368); conditions: Compound concentration 1000.0 nM
[19] = biological target: Mitogen-activated protein kinase kinase kinase 15 (Homo sapiens) (UniProt Q6ZN16); conditions: Compound concentration 1000.0 nM
[20] = biological target: Serine/threonine-protein kinase ICK (Homo sapiens) (UniProt Q9UPZ9); conditions: Compound concentration 1000.0 nM
[21] = biological target: Misshapen-like kinase 1 (Homo sapiens) (UniProt Q8N4C8); conditions: Compound concentration 1000.0 nM
[22] = biological target: Cyclin-dependent kinase 4 (Homo sapiens) (UniProt P11802); conditions: Compound concentration 1000.0 nM
[23] = biological target: 5-hydroxytryptamine receptor 2A (Homo sapiens) (UniProt P28223); conditions: Compound concentration 10.0 uM
[24] = biological target: Serine/threonine-protein kinase TNNI3K (Homo sapiens) (UniProt Q59H18); conditions: Compound concentration 1000.0 nM
[25] = biological target: Uncharacterized serine/threonine-protein kinase SBK3 (Homo sapiens) (UniProt P0C264); conditions: Compound concentration 1000.0 nM
[26] = biological target: Mitogen-activated protein kinase 6 (Homo sapiens) (UniProt Q16659); conditions: Compound concentration 1000.0 nM
[27] = biological target: STE20-like serine/threonine-protein kinase (Homo sapiens) (UniProt Q9H2G2); conditions: Compound concentration 1000.0 nM
[28] = biological target: Receptor tyrosine-protein kinase erbB-3 (Homo sapiens) (UniProt P21860); conditions: Compound concentration 1000.0 nM
[29] = biological target: Megakaryocyte-associated tyrosine-protein kinase (Homo sapiens) (UniProt P42679); conditions: Compound concentration 1000.0 nM
[30] = biological target: Microtubule-associated serine/threonine-protein kinase 1 (Homo sapiens) (UniProt Q9Y2H9); conditions: Compound concentration 1000.0 nM
[31] = biological target: Activin receptor type-1-like (Homo sapiens) (UniProt P37023); conditions: Compound concentration 1000.0 nM
[32] = biological target: Ephrin type-A receptor 7 (Homo sapiens) (UniProt Q15375); conditions: Compound concentration 1000.0 nM
[33] = biological target: Homeodomain-interacting protein kinase 1 (Homo sapiens) (UniProt Q86Z02); conditions: Compound concentration 1000.0 nM
[34] = biological target: Sodium-dependent noradrenaline transporter (Homo sapiens) (UniProt P23975); test: NETRANS/H Eurofins-Panlabs selectivity data (BI); conditions: Compound concentration 10.0 uM
[35] = biological target: Voltage-dependent N-type calcium channel subunit alpha-1B (Rattus norvegicus) (UniProt Q02294); test: CA+/N/RA Eurofins-Panlabs selectivity data (BI); conditions: Compound concentration 10.0 uM
[36] = biological target: Beta-1 adrenergic receptor (Homo sapiens, UniProt P08588); test: GPCRScan assay: inhibition of Beta1; parameters: radioligand conc. used [nm] 0.1 – 0.2, parental cells CHO Flp-In
[37] = biological target: Histamine H2 receptor (Homo sapiens) (UniProt P25021); test: H2/H Eurofins-Panlabs selectivity data (BI); conditions: Compound concentration 10.0 uM
[38] = biological target: Muscarinic acetylcholine receptor M1 (Homo sapiens) (UniProt P11229); test: M1/HU Eurofins-Panlabs selectivity data (BI); conditions: Compound concentration 10.0 uM
[39] = biological target: Interleukin-1 receptor type 1 (Mus musculus) (UniProt P13504); test: IL-1 Eurofins-Panlabs selectivity data (BI); conditions: Compound concentration 10.0 uM
[40] = biological target: Endothelin-1 receptor (Homo sapiens) (UniProt P25101); test: ETA/HU Eurofins-Panlabs selectivity data (BI); conditions: Compound concentration 10.0 uM
[41] = biological target: Sigma non-opioid intracellular receptor 1 (Homo sapiens) (UniProt Q99720); test: SIGMA1/HU Eurofins-Panlabs selectivity data (BI); conditions: Compound concentration 10.0 uM
[42] = biological target: B1 bradykinin receptor (Homo sapiens) (UniProt P46663); test: B1/H Eurofins-Panlabs selectivity data (BI); conditions: Compound concentration 10.0 uM
[43] = biological target: D(1A) dopamine receptor (Homo sapiens) (UniProt P21728); test: D1/HU Eurofins-Panlabs selectivity data (BI); conditions: Compound concentration 10.0 uM
[44] = biological target: Beta-2 adrenergic receptor (Homo sapiens) (UniProt P07550); test: BETA2/HU Eurofins-Panlabs selectivity data (BI); conditions: Compound concentration 10.0 uM
[45] = biological target: Adenosine receptor A3 (Homo sapiens) (UniProt P0DMS8); test: A3/H Eurofins-Panlabs selectivity data (BI); conditions: Compound concentration 10.0 uM
[46] = biological target: Neuropeptide Y receptor type 2 (Homo sapiens) (UniProt P49146); test: Y2/HU Eurofins-Panlabs selectivity data (BI); conditions: Compound concentration 10.0 uM

Chain of Phosphatidylinositol 4-phosphate 3-kinase C2 domain-containing subunit beta (Homo sapiens) (O00750 whole entry, the tested form may be a part): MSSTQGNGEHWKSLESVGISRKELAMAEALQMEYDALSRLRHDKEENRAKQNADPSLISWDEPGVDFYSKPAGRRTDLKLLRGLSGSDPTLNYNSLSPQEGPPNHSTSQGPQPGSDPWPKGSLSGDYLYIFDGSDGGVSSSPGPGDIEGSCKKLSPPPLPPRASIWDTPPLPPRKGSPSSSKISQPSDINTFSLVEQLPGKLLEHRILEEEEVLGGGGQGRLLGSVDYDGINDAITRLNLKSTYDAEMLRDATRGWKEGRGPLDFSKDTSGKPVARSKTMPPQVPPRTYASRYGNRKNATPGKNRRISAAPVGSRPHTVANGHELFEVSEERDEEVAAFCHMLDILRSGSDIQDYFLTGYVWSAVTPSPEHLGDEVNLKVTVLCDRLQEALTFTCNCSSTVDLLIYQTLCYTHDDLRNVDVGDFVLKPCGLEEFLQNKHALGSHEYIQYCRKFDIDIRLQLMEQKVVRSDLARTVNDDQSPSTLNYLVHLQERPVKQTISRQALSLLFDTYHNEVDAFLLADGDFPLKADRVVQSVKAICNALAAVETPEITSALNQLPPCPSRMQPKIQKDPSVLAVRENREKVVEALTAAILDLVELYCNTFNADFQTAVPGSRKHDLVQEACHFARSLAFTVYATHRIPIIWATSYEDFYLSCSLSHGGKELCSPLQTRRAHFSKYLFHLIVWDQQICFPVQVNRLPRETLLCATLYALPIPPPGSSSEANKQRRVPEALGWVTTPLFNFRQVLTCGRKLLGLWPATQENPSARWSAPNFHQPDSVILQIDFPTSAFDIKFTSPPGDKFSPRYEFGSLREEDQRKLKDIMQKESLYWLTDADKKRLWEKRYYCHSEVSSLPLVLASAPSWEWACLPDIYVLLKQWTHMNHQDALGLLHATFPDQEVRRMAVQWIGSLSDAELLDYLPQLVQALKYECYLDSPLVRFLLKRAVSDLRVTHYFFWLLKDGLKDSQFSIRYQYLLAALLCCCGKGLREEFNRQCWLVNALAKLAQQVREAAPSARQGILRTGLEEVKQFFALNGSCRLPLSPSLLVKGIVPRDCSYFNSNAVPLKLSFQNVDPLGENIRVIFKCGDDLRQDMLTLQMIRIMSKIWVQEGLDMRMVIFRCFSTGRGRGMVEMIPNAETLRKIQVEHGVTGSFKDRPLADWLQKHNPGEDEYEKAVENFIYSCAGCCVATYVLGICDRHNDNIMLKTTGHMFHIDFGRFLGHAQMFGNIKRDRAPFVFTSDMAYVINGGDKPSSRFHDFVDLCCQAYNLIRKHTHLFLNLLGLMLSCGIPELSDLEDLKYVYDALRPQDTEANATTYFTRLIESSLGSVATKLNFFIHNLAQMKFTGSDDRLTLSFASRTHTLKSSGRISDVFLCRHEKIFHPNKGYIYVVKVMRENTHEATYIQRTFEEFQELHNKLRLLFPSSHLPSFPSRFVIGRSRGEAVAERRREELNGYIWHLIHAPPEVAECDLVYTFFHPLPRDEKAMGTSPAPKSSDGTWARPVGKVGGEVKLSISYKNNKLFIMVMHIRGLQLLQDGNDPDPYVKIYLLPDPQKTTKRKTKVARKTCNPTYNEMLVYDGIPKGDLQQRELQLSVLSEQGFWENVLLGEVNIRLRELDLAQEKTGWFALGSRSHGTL
Chain of Receptor tyrosine-protein kinase erbB-3 (Homo sapiens) (P21860 whole entry): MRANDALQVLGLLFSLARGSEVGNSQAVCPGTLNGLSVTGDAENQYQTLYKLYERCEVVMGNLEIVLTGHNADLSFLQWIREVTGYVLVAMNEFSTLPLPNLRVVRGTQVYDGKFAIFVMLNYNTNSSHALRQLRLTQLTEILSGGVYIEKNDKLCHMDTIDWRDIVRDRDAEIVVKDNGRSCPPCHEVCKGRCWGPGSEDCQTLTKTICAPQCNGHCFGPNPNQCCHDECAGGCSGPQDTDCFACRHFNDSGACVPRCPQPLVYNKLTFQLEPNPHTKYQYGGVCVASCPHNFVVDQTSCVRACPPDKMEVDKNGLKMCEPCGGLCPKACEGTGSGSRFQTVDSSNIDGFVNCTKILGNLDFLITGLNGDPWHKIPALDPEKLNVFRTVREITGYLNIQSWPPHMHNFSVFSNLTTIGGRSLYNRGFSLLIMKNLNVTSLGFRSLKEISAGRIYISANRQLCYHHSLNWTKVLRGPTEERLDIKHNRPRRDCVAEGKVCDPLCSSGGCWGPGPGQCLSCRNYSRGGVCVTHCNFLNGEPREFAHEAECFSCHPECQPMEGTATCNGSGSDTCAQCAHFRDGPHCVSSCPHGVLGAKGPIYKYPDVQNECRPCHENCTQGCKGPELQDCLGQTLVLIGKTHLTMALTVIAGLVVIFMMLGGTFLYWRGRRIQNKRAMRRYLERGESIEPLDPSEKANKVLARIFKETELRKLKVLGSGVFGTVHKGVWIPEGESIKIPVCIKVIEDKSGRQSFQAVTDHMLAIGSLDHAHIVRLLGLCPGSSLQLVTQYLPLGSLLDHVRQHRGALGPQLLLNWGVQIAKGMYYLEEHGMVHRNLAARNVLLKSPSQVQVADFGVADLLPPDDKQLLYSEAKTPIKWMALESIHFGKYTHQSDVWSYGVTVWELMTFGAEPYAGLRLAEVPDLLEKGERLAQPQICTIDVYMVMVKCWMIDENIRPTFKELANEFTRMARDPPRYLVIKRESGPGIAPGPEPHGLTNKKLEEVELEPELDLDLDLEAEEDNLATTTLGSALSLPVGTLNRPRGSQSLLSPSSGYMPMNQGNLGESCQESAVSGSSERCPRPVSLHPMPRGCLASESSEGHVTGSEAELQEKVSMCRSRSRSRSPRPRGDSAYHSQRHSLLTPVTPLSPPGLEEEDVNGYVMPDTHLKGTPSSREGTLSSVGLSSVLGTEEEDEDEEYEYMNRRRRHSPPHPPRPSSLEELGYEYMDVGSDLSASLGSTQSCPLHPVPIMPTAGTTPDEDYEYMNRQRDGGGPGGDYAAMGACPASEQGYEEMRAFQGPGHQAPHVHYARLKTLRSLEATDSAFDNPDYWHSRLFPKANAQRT
Chain of Mitogen-activated protein kinase kinase kinase 15 (Homo sapiens) (Q6ZN16 whole entry): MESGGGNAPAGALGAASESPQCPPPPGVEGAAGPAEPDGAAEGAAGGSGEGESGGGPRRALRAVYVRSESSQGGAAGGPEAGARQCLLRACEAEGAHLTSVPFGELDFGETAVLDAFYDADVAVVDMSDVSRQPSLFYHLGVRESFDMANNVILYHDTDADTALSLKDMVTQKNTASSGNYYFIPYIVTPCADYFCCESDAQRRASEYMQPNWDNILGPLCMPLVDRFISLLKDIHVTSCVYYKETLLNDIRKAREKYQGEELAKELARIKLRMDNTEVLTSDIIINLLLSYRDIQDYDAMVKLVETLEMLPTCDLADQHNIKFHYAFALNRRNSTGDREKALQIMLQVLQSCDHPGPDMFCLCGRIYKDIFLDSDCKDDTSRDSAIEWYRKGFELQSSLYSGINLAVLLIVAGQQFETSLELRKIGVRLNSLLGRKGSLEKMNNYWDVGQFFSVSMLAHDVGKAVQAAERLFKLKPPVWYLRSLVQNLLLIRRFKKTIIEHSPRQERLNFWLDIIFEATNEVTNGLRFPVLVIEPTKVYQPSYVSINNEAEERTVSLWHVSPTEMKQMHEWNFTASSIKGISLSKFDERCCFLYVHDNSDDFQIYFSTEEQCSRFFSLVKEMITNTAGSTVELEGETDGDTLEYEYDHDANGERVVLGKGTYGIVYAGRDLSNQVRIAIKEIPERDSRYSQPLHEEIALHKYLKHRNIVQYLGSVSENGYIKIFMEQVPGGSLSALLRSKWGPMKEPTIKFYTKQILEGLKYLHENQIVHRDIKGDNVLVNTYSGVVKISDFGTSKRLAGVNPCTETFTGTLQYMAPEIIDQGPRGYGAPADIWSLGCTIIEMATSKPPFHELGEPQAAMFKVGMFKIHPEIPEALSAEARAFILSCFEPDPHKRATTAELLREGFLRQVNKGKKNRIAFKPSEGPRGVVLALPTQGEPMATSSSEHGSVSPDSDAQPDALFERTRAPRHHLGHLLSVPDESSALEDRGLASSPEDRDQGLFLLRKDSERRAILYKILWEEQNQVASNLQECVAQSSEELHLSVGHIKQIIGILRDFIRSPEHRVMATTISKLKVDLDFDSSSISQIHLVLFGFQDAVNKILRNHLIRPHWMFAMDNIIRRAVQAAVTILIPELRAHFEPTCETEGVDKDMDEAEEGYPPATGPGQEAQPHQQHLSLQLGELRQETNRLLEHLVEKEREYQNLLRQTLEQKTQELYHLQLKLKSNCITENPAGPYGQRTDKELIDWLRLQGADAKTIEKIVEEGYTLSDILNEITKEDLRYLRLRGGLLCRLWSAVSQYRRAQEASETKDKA
Chain of Serine/threonine-protein kinase TNNI3K (Homo sapiens) (Q59H18 whole entry): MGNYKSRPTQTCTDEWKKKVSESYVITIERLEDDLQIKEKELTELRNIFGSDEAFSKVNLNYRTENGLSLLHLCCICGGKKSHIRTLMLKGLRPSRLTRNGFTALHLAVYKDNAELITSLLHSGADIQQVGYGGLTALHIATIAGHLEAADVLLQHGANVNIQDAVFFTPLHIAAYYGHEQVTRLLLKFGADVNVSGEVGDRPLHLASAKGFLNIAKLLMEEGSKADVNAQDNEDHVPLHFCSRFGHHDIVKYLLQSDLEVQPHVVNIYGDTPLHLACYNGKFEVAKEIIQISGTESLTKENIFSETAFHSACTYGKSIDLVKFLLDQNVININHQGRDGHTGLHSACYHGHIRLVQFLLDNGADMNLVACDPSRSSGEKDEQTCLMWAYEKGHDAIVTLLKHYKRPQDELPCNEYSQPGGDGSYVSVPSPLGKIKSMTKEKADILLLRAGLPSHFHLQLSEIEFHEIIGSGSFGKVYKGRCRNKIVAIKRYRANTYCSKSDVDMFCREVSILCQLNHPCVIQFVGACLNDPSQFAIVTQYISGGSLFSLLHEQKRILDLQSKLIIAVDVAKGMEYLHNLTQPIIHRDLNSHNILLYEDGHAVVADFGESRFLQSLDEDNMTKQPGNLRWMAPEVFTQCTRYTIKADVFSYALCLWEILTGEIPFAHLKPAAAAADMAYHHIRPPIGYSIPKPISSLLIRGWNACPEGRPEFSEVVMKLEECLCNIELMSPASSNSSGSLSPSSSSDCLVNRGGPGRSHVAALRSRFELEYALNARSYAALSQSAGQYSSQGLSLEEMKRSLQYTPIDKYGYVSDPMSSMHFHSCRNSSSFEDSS

## CS(=O)(=O)NCC[C@H](NC(=O)c1cncc2c1cnn2-c1ccc(F)cc1)c1ccnc(S(C)(=O)=O)c1 [BI 9307]
[1]
  residual activity: 99%
[2]
  residual activity: 100%
[3]
  residual activity: 100%
[4]
  residual activity: 100%
[5]
  residual activity: 100%
[6]
  residual activity: 100%
[7]
  residual activity: 100%
[8]
  residual activity: 100%
[9]
  residual activity: 100%
[10]
  residual activity: 78%
[11]
  residual activity: 96%
[12]
  residual activity: 91%
[13]
  residual activity: 100%
[14]
  residual activity: 100%
[15]
  residual activity: 100%
[16]
  inhibition: 18.9%
[17]
  residual activity: 100%
[18]
  residual activity: 89%
[19]
  residual activity: 100%
[20]
  residual activity: 100%
[21]
  residual activity: 100%
[22]
  residual activity: 100%
[23]
  inhibition: 11.8%
[24]
  residual activity: 100%
[25]
  residual activity: 100%
[26]
  residual activity: 100%
[27]
  residual activity: 100%
[28]
  residual activity: 100%
[29]
  residual activity: 100%
[30]
  residual activity: 100%
[31]
  residual activity: 96%
[32]
  residual activity: 82%
[33]
  residual activity: 100%

## CS(=O)(=O)c1cc(C2(NC(=O)c3cncc4c3cnn4-c3ccc(F)cc3)CC2)ccn1 [BI 639667]
[34]
  residual activity: 82%
[1]
  residual activity: 99%
[2]
  residual activity: 100%
[3]
  residual activity: 100%
[4]
  residual activity: 100%
[5]
  residual activity: 100%
[6]
  residual activity: 100%
[35]
  residual activity: 90%
[36]
  Ki: 1.88 µM
[7]
  residual activity: 100%
[8]
  residual activity: 100%
[37]
  residual activity: 89%
[38]
  residual activity: 99%
[10]
  residual activity: 84%
[11]
  residual activity: 80%
[12]
  residual activity: 100%
[13]
  residual activity: 100%
[14]
  residual activity: 100%
[15]
  residual activity: 99%
[39]
  residual activity: 90%
[16]
  inhibition: 29.6%
[40]
  residual activity: 97%
[17]
  residual activity: 97%
[18]
  residual activity: 100%
[41]
  residual activity: 105%
[42]
  residual activity: 99%
[19]
  residual activity: 67%
[20]
  residual activity: 100%
[43]
  residual activity: 100%
[21]
  residual activity: 100%
[22]
  residual activity: 83%
[23]
  inhibition: 20.4%
[44]
  residual activity: 96%
[24]
  residual activity: 64%
[45]
  residual activity: 81%
[25]
  residual activity: 100%
[26]
  residual activity: 100%
[27]
  residual activity: 100%
[28]
  residual activity: 100%
[29]
  residual activity: 100%
[30]
  residual activity: 100%
[46]
  residual activity: 98%
[31]
  residual activity: 100%

— ChEMBL document CHEMBL4507278 (2021)
